Results from patent US10981894B2, “Melanocortin subtype-2 receptor (MC2R) antagonists and uses thereof” (Crinetics Pharmaceuticals, Inc., priority 2018, dated 2021).

What follows are molecules tested against hMC2 receptor (Homo sapiens, UniProt Q01718) (assay: hMC2 membrane binding assay ([125I]ACTH (1-39) Tyr23, SPA)). Details: crude hMC2R membranes from CRE-bla-CHO-K1 cells expressing hMC2 receptor and hMRAP; [125I]ACTH (1-39) Tyr23 0.2 nM; 1.5 hours at room temperature; read-out: MC2R binding potency.
Design: scale not given here
Method: Crude membrane fractions are prepared from CRE-bla-CHO-K1 cells stably expressing hMC2 receptor and hMRAP accessory protein (Thermo Fisher). The cells are grown to 85-100% confluence on standard tissue culture dishes in GlutaMax DMEM growth media (Gibco) with following additives: 10% dialyzed FBS (Gemini), 0.1 mM NEAA (Gibco), 25 mM HEPES (Gibco), 5 μg/mL blasticidin (Goldbio), 100 μg/mL zeocin (Invitrogen), 600 μg/mL hygromycin (Goldbio). To prepare membranes, cells are scraped and collected in 1× Dulbecco's phosphate buffered saline (Corning) and then pelleted at 1000 RPM's. The cell pellet is reconstituted in membrane preparation buffer (20 mM HEPES, 6 mM MgCl2 and 1 mM EGTA, protease inhibitor tablets (Pierce) adjusted to pH 7.4), homogenized using a dounce homogenizer, and the resulting membrane fraction is pelleted by centrifugation at 12,000 RPM's. The membrane pellet is resuspended in membrane preparation buffer, snap freezed and stored at −80° C. for later use.
Binding Assay for hMC2 Antagonists Protocol:
The hMC2 membrane binding assay utilizes the following components: radiolabel [^125I]ACTH (1-39) Tyr23 (PerkinElmer), wheatgerm agglutinin coated PVT SPA beads (PerkinElmer), crude hMC2R membranes, and compounds. Briefly hMC2R membranes are incubated with SPA beads in binding assay buffer (50 mM HEPES, 5 mM MgCl2, 1 mM CaCl2, 0.2% BSA, protease inhibitor tablets (Pierce) adjusted to pH7.4) prior to assay initiation. A dose response of compound (the final concentration of compound are typically 0-10,000 nM), SPA membranes, and [^125I]ACTH (1-39) Tyr23 at a final concentration of 0.2 nM is plated in a 96-well assay plate and allowed to incubate 1.5 hours at room temperature. Assay plates are read using a Top Count NXT and Ki values for compounds are determined using a GraphPad Prism 6 non-linear regression analysis.

hMC2 receptor, sequence (Q01718 whole entry): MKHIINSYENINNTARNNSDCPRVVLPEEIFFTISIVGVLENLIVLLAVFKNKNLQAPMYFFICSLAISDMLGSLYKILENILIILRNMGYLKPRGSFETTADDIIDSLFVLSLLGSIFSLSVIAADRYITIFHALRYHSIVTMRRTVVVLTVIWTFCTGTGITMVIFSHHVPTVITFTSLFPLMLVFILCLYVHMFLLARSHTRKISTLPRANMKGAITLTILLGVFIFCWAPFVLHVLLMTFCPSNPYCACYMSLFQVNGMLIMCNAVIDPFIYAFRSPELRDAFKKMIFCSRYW
hMC2 receptor, sequence (Q8TCY5 whole entry partner): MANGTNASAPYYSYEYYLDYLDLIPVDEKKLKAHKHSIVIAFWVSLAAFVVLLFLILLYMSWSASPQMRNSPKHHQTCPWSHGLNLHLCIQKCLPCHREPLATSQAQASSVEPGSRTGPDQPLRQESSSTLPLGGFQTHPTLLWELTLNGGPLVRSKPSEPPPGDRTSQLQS

| Ki [nM] | SMILES |
| --- | --- |
| < 10 | CCOc1ncccc1-c1ccc(N2CCN(C(=O)C3(c4ccccc4)CCC3)C[C@H]2CC)c(C(=O)N[C@@H]2CCN(C)C2)n1 [Compound 1-358, 2′-ethoxy-5-[(2R)-2-ethyl-4-(1-phenylcyclobutanecarbonyl)piperazin-1-yl]-N-[(3R)-1-methylpyrrolidin-3-yl]-[2,3′-bipyridine]-6-carboxamide] |
| < 10 | CCOc1ncccc1-c1ccc(N2CCN(C(=O)c3ccc(Cl)cc3C(F)(F)F)C[C@H]2CC)c(C(=O)NCCc2nccn2C)n1 [Compound 1-234, 5-[(2R)-4-[4-chloro-2-(trifluoromethyl)benzoyl]-2-ethylpiperazin-1-yl]-2′-ethoxy-N-[2-(1-methyl-1H-imidazol-2-yl)ethyl]-[2,3′-bipyridine]-6-carboxamide] |
| < 10 | CCOc1ncccc1-c1ccc(N2CCN(C(=O)c3ccc(Cl)cc3C(F)(F)F)C[C@H]2CC)c(C(=O)N[C@H]2CCNC2)n1 [Compound 1-214, 5-[(2R)-4-[4-chloro-2-(trifluoromethyl)benzoyl]-2-ethylpiperazin-1-yl]-2′-ethoxy-N-[(3S)-pyrrolidin-3-yl]-[2,3′-bipyridine]-6-carboxamide] |
| < 10 | CCOc1ccncc1-c1ccc(N2CCN(C(=O)c3ccc(C(F)(F)F)cc3Cl)C[C@H]2CC)c(C(=O)NCCN)c1 [Compound 1-35, N-(2-aminoethyl)-2-[(2R)-4-[2-chloro-4-(trifluoromethyl)benzoyl]-2-ethylpiperazin-1-yl]-5-(4-ethoxypyridin-3-yl)benzamide] |
| < 10 | CCOc1ccc(C(=O)N2CCN(c3ccc(-c4cccnc4OCC)nc3C(=O)NC[C@@H]3CCN3C)[C@H](CC)C2)c(C(F)(F)F)n1 [Compound 1-257, 2′-ethoxy-5-[(2R)-4-[6-ethoxy-2-(trifluoromethyl)pyridine-3-carbonyl]-2-ethylpiperazin-1-yl]-N-{[(2S)-1-methylazetidin-2-yl]methyl}-[2,3′-bipyridine]-6-carboxamide] |
| < 10 | CCOc1ccc(C(=O)N2CCN(c3ccc(-c4cccnc4OCC)nc3C(=O)NCC3CN(C)C3)[C@H](CC)C2)c(C(F)(F)F)n1 [Compound 1-249, 2′-ethoxy-5-[(2R)-4-[6-ethoxy-2-(trifluoromethyl)pyridine-3-carbonyl]-2-ethylpiperazin-1-yl]-N-[(1-methylazetidin-3-yl)methyl]-[2,3′-bipyridine]-6-carboxamide] |
| < 10 | CCOc1ncccc1-c1ccc(N2CCN(C(=O)c3ccc(Cl)cc3C(F)(F)F)C[C@H]2CC)c(C(=O)N[C@@H]2CCNC2)c1F [Compound 1-72, 6-[(2R)-4-[4-chloro-2-(trifluoromethyl)benzoyl]-2-ethylpiperazin-1-yl]-3-(2-ethoxypyridin-3-yl)-2-fluoro-N-[(3R)-pyrrolidin-3-yl]benzamide] |
| < 10 | CCOc1ncccc1-c1ccc(N2CCN(C(=O)c3ccc(Cl)cc3N3CC[C@H](N(C)C)C3)C[C@H]2CC)c(C(=O)N[C@@H]2CCNC2)c1 [Compound 1-115, 2-[(2R)-4-{4-chloro-2-[(3S)-3-(dimethylamino)pyrrolidin-1-yl]benzoyl}-2-ethylpiperazin-1-yl]-5-(2-ethoxypyridin-3-yl)-N-[(3R)-pyrrolidin-3-yl]benzamide] |
| < 10 | CCOc1ncccc1-c1ccc(N2CCN(C(=O)C3(C(F)(F)F)CCCC3)C[C@H]2CC)c(C(=O)NC[C@H]2CCN2C)n1 [Compound 1-330, 2′-ethoxy-5-[(2R)-2-ethyl-4-[1-(trifluoromethyl)cyclopentanecarbonyl]piperazin-1-yl]-N-{[(2R)-1-methylazetidin-2-yl]methyl}-[2,3′-bipyridine]-6-carboxamide] |
| < 10 | CCOc1ncccc1-c1ccc(N2CCN(C(=O)c3ccc(Cl)cc3C(F)(F)F)C[C@H]2CC)c(C(=O)NC[C@H]2CCN2)c1 [Compound 1-102, N-{[(2R)-azetidin-2-yl]methyl}-2-[(2R)-4-[4-chloro-2-(trifluoromethyl)benzoyl]-2-ethylpiperazin-1-yl]-5-(2-ethoxypyridin-3-yl)benzamide] |
| < 10 | CCOc1ncccc1-c1ccc(N2CCN(C(=O)n3ccc4cccc(C#N)c43)C[C@H]2CC)c(C(=O)N[C@@H]2CCN(C)C2)n1 [Compound 1-429, 5-[(2R)-4-(7-cyano-1H-indole-1-carbonyl)-2-ethylpiperazin-1-yl]-2′-ethoxy-N-[(3R)-1-methylpyrrolidin-3-yl]-[2,3′-bipyridine]-6-carboxamide] |
| 10 to 100 | CC[C@@H]1CN(C(=O)c2ccc(C(F)(F)F)cc2Cl)CCN1c1ccc(-c2cccc(F)c2Cl)cc1C(=O)NCCN [Compound 1-9, N-(2-aminoethyl)-2′-chloro-4-[(2R)-4-[2-chloro-4-(trifluoromethyl)benzoyl]-2-ethylpiperazin-1-yl]-3′-fluoro-[1,1′-biphenyl]-3-carboxamide] |
| < 10 | CCOc1ncccc1-c1ccc(N2CCN(C(=O)c3ccc(C)cc3Cl)C[C@H]2CC)c(C(=O)NCCN)c1 [Compound 1-43, N-(2-aminoethyl)-2-[(2R)-4-(2-chloro-4-methylbenzoyl)-2-ethylpiperazin-1-yl]-5-(2-ethoxypyridin-3-yl)benzamide] |
| < 10 | CCOc1ccccc1-c1ccc(N2CCN(C(=O)C3(C(F)(F)F)CCCC3)C[C@H]2CC)c(C(=O)N[C@@H]2CCNC2)n1 [Compound 1-304, 6-(2-ethoxyphenyl)-3-[(2R)-2-ethyl-4-[1-(trifluoromethyl)cyclopentanecarbonyl]piperazin-1-yl]-N-[(3R)-pyrrolidin-3-yl]pyridine-2-carboxamide] |
| < 10 | CCOc1ncccc1-c1ccc(N2CCN(C(=O)c3ccc(C(F)(F)F)cc3N(C)C)C[C@H]2CC)c(C(=O)NCCN)c1 [Compound 1-107, N-(2-aminoethyl)-2-[(2R)-4-[2-(dimethylamino)-4-(trifluoromethyl)benzoyl]-2-ethylpiperazin-1-yl]-5-(2-ethoxypyridin-3-yl)benzamide] |
| < 10 | CCOc1ccccc1-c1ccc(N2CCN(C(=O)N3CCC[C@H]3C(F)(F)F)C[C@H]2CC)c(C(=O)N[C@H]2CCNC2)n1 [Compound 1-343, 6-(2-ethoxyphenyl)-3-[(2R)-2-ethyl-4-[(2S)-2-(trifluoromethyl)pyrrolidine-1-carbonyl]piperazin-1-yl]-N-[(3S)-pyrrolidin-3-yl]pyridine-2-carboxamide] |
| < 10 | CCOc1ncccc1-c1ccc(N2CCN(C(=O)c3ccc(Cl)cc3C(F)(F)F)C[C@H]2CC)c(C(=O)NCCN(C)C)c1F [Compound 1-173, 6-[(2R)-4-[4-chloro-2-(trifluoromethyl)benzoyl]-2-ethylpiperazin-1-yl]-N-[2-(dimethylamino)ethyl]-3-(2-ethoxypyridin-3-yl)-2-fluorobenzamide] |
| < 10 | CCOc1ccc(C(=O)N2CCN(c3ccc(-c4cccnc4OCC)nc3CN)[C@H](CC)C2)c(C(F)(F)F)c1 [Compound 2-25, 1-{2′-ethoxy-5-[(2R)-4-[4-ethoxy-2-(trifluoromethyl)benzoyl]-2-ethylpiperazin-1-yl]-[2,3′-bipyridin]-6-yl}methanamine] |
| < 10 | CCOc1ncccc1-c1ccc(N2CCN(C(=O)c3ccc(Cl)cc3C(F)(F)F)C[C@H]2CC)c(C(=O)NCCN)c1F [Compound 1-69, N-(2-aminoethyl)-6-[(2R)-4-[4-chloro-2-(trifluoromethyl)benzoyl]-2-ethylpiperazin-1-yl]-3-(2-ethoxypyridin-3-yl)-2-fluorobenzamide] |
| < 10 | CCOc1ncccc1-c1ccc(N2CCN(C(=O)OC(c3ccccc3)C(C)(C)C)C[C@H]2CC)c(C(=O)N[C@@H]2CCN(C)C2)n1 (stereo partly drawn) [Compound 1-408, 2,2-dimethyl-1-phenylpropyl (3R)-4-(2′-ethoxy-6-{[(3R)-1-methylpyrrolidin-3-yl]carbamoyl}-[2,3′-bipyridin]-5-yl)-3-ethylpiperazine-1-carboxylate] |
| < 10 | CCOc1ncccc1-c1ccc(N2CCN(C(=O)c3ccc(C(F)(F)F)cc3Cl)C[C@H]2CC)c(C(=O)NCCN)c1 [Compound 1-34, N-(2-aminoethyl)-2-[(2R)-4-[2-chloro-4-(trifluoromethyl)benzoyl]-2-ethylpiperazin-1-yl]-5-(2-ethoxypyridin-3-yl)benzamide] |
| < 10 | CCOc1ncccc1-c1ccc(N2CCN(C(=O)c3ccc(Cl)cc3C(F)(F)F)C[C@H]2CC)c(C(=O)NC[C@@H]2CNCCO2)c1 [Compound 1-109, 2-[(2R)-4-[4-chloro-2-(trifluoromethyl)benzoyl]-2-ethylpiperazin-1-yl]-5-(2-ethoxypyridin-3-yl)-N-{[(2S)-morpholin-2-yl]methyl}benzamide] |
| < 10 | CCOc1ccccc1-c1ccc(N2CCN(C(=O)c3ccc(Cl)cc3C(F)F)C[C@H]2CC)c(C(=O)N[C@@H]2CCN(C)C2)n1 [Compound 1-287, 3-[(2R)-4-[4-chloro-2-(difluoromethyl)benzoyl]-2-ethylpiperazin-1-yl]-6-(2-ethoxyphenyl)-N-[(3R)-1-methylpyrrolidin-3-yl]pyridine-2-carboxamide] |
